In paper PMC12067438 (Journal of Medicinal Chemistry, 2025):

How the values were obtained:
[1] = test system: H2030 xenograft model (SMARCA4 mutant); experiment: H2030 xenograft antitumor efficacy; format: in vivo, mouse; settings: 5 mg/kg once daily, 17 days, 1% Tween 80 formulation
[2] = Plasma pharmacokinetics after single oral or intraperitoneal dose; format: in vivo, mouse; settings: for Oral bioavailability (in words): 25 mg/kg oral, mice
[3] = Mouse liver microsomal stability assay; format: in vitro ADME; settings: for remaining (T = 60 min): mouse microsomal assay, with NADPH; for CLint scaled at 1 h / half-life at 1 h / microsomal CLint at 1 h: mouse, liver microsomes
[4] = Human liver microsomal stability assay; format: in vitro ADME; settings: for remaining (T = 60 min): with NADPH
YAP1 = YAP1 phosphorylation immunoblot in H322 cells; format: cell-based, human; settings: H322 SMARCA4 mutant cells, 96 h; 1 µM YDR1, 0.1 µM YD54
[5] = test system: H2023 xenograft model (SMARCA4 mutant); experiment: H2023 xenograft antitumor efficacy; format: in vivo, mouse; settings: 5 mg/kg once daily, 19 days
[6] = test system: global proteome of H1792 SMARCA4-WT cell line; experiment: Quantitative TMT mass spectrometry of global proteome; format: cell-based, human; settings: 100 nM YDR1 48 h, 20 nM YD54 24 h
[7] = test system: HCC515 xenograft model (SMARCA4 mutant); experiment: HCC515 xenograft antitumor efficacy; format: in vivo, mouse; settings: 5 mg/kg once daily, 19 days, 1% Tween 80 formulation
SMARCA4 = SMARCA4 (Mus musculus, UniProt Q3TKT4); experiment: PK/PD study: SMARCA4 in spleen by Western blot; format: in vivo; settings: C57BL/6 and Crbn I391V mice, compared to SMARCA2
SMARCA4, sequence (Q3TKT4 whole entry): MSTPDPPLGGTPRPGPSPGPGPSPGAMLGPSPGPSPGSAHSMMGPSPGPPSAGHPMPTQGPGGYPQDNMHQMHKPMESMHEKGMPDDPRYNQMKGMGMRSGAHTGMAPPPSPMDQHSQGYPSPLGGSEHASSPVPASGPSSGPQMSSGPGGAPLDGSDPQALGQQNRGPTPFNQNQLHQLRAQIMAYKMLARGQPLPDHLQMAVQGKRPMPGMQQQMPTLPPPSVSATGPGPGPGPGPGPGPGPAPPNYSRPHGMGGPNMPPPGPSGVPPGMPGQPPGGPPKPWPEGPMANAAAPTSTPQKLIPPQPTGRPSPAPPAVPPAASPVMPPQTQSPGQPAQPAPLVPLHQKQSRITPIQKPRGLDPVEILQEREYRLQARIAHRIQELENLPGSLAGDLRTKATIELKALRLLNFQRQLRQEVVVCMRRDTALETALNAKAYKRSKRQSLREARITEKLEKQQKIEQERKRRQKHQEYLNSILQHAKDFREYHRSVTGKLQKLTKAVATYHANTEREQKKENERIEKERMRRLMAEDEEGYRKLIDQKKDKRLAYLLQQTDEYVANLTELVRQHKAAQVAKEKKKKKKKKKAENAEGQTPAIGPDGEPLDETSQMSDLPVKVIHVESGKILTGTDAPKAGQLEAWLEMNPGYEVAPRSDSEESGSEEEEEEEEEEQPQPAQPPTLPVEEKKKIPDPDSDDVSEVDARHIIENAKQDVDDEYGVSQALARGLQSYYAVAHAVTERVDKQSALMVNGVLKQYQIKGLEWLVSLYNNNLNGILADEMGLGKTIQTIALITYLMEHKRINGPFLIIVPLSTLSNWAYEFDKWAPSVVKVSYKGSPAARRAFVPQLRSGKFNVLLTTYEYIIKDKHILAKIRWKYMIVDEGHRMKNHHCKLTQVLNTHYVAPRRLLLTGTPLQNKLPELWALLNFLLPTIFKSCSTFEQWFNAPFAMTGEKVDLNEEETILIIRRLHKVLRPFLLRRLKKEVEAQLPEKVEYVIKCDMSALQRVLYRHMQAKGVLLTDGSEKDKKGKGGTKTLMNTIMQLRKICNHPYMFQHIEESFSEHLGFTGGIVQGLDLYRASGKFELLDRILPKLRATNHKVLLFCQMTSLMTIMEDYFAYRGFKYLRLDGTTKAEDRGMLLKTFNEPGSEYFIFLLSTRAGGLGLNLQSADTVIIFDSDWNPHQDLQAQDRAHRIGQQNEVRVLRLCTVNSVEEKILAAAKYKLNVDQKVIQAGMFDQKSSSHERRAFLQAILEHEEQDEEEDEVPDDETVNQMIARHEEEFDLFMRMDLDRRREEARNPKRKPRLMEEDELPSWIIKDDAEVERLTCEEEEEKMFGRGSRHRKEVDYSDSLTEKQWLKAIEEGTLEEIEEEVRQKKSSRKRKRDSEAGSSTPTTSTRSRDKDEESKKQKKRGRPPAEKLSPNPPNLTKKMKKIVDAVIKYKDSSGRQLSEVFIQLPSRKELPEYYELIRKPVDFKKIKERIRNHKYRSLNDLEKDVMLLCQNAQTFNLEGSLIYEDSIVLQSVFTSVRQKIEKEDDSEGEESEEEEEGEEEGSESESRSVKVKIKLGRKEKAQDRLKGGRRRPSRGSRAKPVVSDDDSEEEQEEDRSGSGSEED

[8] = 21-day tolerability in mice; format: in vivo, mouse
[9] = test system: H1568 xenograft model (SMARCA4 mutant); experiment: H1568 xenograft antitumor efficacy; format: in vivo, mouse; settings: 40 mg/kg once daily, 13 days
SMARCA2 = SMARCA2 (Homo sapiens, UniProt P51531); experiment: SMARCA2 protein levels in xenograft tumors by Western blot; format: in vivo; settings: H1568 xenograft efficacy study, 40 mg/kg once daily, 13 days
SMARCA2, sequence (P51531 whole entry): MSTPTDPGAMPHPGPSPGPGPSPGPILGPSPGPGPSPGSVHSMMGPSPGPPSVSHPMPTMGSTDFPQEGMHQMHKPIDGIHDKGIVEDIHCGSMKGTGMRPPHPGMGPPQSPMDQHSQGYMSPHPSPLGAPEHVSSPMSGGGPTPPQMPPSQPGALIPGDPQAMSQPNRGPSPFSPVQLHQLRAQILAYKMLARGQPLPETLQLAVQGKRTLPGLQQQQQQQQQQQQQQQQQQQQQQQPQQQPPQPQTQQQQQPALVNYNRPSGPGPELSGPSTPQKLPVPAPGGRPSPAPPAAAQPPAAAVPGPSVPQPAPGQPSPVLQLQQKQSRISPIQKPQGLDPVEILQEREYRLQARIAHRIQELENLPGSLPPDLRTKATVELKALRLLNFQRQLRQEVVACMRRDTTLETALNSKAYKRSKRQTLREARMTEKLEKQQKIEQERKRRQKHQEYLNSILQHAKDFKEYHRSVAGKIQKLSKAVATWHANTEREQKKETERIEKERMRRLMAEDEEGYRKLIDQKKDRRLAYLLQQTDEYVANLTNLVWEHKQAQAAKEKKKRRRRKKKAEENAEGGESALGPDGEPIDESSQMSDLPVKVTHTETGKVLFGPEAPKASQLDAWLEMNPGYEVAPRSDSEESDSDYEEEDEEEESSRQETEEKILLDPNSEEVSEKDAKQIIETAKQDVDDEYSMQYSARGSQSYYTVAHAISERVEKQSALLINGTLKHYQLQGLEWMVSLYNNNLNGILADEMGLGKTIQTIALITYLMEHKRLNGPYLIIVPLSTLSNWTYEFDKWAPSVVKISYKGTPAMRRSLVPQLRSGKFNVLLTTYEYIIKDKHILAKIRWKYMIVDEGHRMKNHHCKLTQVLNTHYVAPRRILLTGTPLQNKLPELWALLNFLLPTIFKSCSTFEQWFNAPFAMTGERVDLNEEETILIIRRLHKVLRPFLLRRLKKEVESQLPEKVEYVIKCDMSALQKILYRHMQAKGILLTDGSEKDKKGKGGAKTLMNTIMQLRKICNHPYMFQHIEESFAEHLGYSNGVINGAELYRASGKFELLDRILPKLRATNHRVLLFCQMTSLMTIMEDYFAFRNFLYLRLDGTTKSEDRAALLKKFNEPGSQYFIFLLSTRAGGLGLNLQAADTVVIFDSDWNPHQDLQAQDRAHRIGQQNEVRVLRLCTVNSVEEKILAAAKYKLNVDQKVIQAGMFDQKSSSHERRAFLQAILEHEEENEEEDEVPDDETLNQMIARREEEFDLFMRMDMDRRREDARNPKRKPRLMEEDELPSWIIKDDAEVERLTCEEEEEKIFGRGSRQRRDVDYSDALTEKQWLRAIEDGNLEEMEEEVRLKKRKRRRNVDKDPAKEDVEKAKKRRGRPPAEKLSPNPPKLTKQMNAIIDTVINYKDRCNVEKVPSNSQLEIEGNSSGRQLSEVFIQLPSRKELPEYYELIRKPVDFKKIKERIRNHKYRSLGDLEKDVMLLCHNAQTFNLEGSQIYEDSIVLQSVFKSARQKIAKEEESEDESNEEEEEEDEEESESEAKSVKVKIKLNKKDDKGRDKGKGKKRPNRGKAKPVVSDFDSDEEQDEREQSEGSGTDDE

ERK = experiment: pERK immunoblot in H2030 cells; settings: sotorasib 0.5 µM, YDR1 or YD54 1.25 µM, 72 hours (YDR1), 48 hours (YD54)

Compound | Oral bioavailability (in words) [2] | remaining (T = 60 min) [3] | CLint scaled at 1 h [3] | half-life at 1 h [3] | microsomal CLint at 1 h [3] | Clearance class in human microsomal assays ([4]; human microsomal assay) | remaining (T = 60 min) ([4]; human microsomal assay) | CLint scaled at 1 h ([4]; human, liver microsomes) | Phosphorylation of YAP1 at S109 (YAP1) | Phosphorylation of YAP1 at S127 (YAP1) | SMARCA4 level in TMT proteomics [6] | also measured
Nc1nnc(-c2ccccc2O)cc1N1CCN(Cc2ccc(N3CCN(CCOc4cccc5c4C(=O)N(C4CCC(=O)NC4=O)C5=O)CC3)c(F)c2)CC1 (stereo not drawn) [YD54] | orally bioavailable | 0.414 | 119 mL/min/kg | 45.9 min | 30.2 µL/min/mg | moderate clearance | 0.3234 | 35.8 mL/min/kg | drastic increase | potent increase | minimally altered | reduction in body weight compared to controls [1]: < 20%; half-life at 1 h ([4]; human, liver microsomes, T1/2, human microsomal assay): 34.9 min; reduction in body weight compared to controls [5]: < 10%; reduction in body weight compared to controls [7]: < 20%
Nc1nnc(-c2ccccc2O)cc1N1CCN(Cc2ccc(N3CCC(CN4CCN(c5ccc6c(c5)C(=O)N(C5CCC(=O)NC5=O)C6=O)CC4)CC3)c(F)c2)CC1 (stereo not drawn) [YDR1] | robust oral bioavailability | 0.4998 | 91.9 mL/min/kg | 59.7 min | 23.2 µL/min/mg | slow clearance | 0.4743 | 21.5 mL/min/kg | drastic increase | potent increase | minimally altered | half-life ([2]; CD-1, mouse, plasma, oral, 25 mg/kg): > 1440 min; degradation of SMARCA4 in spleen (SMARCA4): only modestly degraded; T1/2 ([4]; human microsomal assay): 58.024 min; microsomal CLint at 1 h ([4]; human, liver microsomes): 23.9 µL/min/mg; Body weight and signs of toxicity ([8]; daily treatment up to 80 mg/kg for 21 days): minimal body weight loss and no obvious signs of toxicity or morbidity; Tolerability ([8]; daily treatment with increasing doses up to 80 mg/kg for 21 days): well tolerated; Tolerability in efficacy study [9]: well tolerated with no change in body weight; reduction in body weight compared to controls [9]: < 10%; degradation of SMARCA2 in tumors (SMARCA2): about 50%
C=CC(=O)N1CCN(c2nc(=O)n(-c3c(C)ccnc3C(C)C)c3nc(-c4c(O)cccc4F)c(F)cc23)[C@@H](C)C1 [sotorasib] |  |  |  |  |  |  |  |  |  |  |  | phosphorylation of ERK (ERK): robustly reduced phosphorylation of ERK
